Test results: patent US20120010177A1, “MicroRNA Modulators and Method for Identifying And Using The Same” (The Wistar Institute / North Carolina State University, priority 2008, published 2012)

The compounds below were run on miR-21 (assay: High throughput primary miR-21 FLuc reporter assay (concentration-response)). Conditions: HeLa Luc-miR-21 reporter, 48-hour incubation; read-out: AC50.
Format: cell-based, human
Experimental: Primary miR-21 Assay. The primary miR-21 FLuc reporter assay is carried out with HeLa cells expressing the Luc-miR-21 reporter using a 48-hour incubation time. Active compounds that increase the luciferase response are identified based upon inhibition of miR-21.
SAR. The concentration-response data for the entire high throughput screen is plotted and modeled by a four parameter logistic fit and SAR analysis is performed according to conventional approaches (Iglese, et al. (2006) Proc. Natl. Acad. Sci. USA […]:11473-8). In brief, Class 1.1 and 1.2 are full curves containing upper and lower asymptotes with efficacy ≧80% and <80%, respectively. Class 2.1 and 2.2 are incomplete curves having only one asymptote with efficacy ≧80% and <80%, respectively. Class 3 curves show activity at only the highest concentration or are poorly fit. […] For SAR analysis, compounds associated with Class 1 and 2.1 curves are clustered using LEADSCOPE® fingerprints. […] Compounds sharing a common scaffold form a series. Candidate series and singletons are chosen for follow up studies. For each lead or series, an appropriate library design method (e.g., point substitution library or matrix library) is selected. Typically, precursors are synthesized and a library of 15-25 compounds is produced for analysis in the above-described assays.

Row | SMILES | AC50 [µM]
1 | Cc1ccc(C)c(-n2nnc(-c3nc(-c4ccc(Cl)cc4)no3)c2N)c1 [Compound 55] | 1.85

Same assay, conditions: Homo sapiens

Row | SMILES | AC50 [µM]
2 | COP(=O)(OC)C(Nc1ccc(C)cc1)c1ccc([N+](=O)[O-])cc1 (stereo not drawn) [Compound 286] | 10.4
3 | CC(=O)COc1ccc2c3c(c(=O)oc2c1C)CCCCC3 [Compound 261] | 3.29

Same assay, conditions: Homo sapiens, HeLa, 48 h, HeLa Luc-miR-21 reporter, 48-hour incubation; read-out: AC50

Row | SMILES | AC50 [µM]
4 | COc1ccc(C(=O)NCCC2=CCCCC2)cc1OC1CCN(C(C)C)CC1 [Compound 117] | 16.5
5 | Cc1ccsc1/C=N/NC(=O)c1ccc(-n2cccc2)cc1 [Compound 223] | 13.1
6 | COc1ccc(Nc2nc(N)nc(CSc3nccc(C)n3)n2)cc1 [Compound 66] | 16.5
7 | COc1ccc(OCC(=O)Nc2cc(-c3nc4ccccc4s3)ccc2C)cc1 [Compound 184] | 4.65
8 | O=C(CSc1nnc(-c2ccc(Cl)cc2)o1)Nc1ccc(F)cc1 [Compound 122] | 1.04
9 | C/C(=N\NC(=O)c1ccco1)c1ccc(NC(=O)C(F)(F)F)cc1 [Compound 229] | 16.5
10 | CC(=O)Nc1ccc(NC(=O)COc2ccc(Cl)cc2Cl)cc1 [Compound 175] | 14.7
11 | O=C(N/N=C/c1ccc2cccnc2c1)c1nc(O)c2ccccc2n1 [Compound 224] | 13.1
12 | O=C(CSc1nnc(-c2ccc(Br)cc2)o1)Nc1cccc2ccccc12 [Compound 164] | 18.5
13 | COc1ccc(OCC(=O)Nc2ccc(-c3nc4cc(Cl)ccc4o3)cc2)cc1 [Compound 167] | 2.93
14 | COc1ccc(-n2ncc3c(NCCCn4ccnc4)ncnc32)cc1 [Compound 247] | 10.4
15 | CCc1cccc(-n2nnc(-c3nc(-c4cccs4)no3)c2N)c1 [Compound 19] | 1.65
16 | O=c1ccc2ccc(OCc3nnc(-c4ccccc4Br)o3)cc2o1 [Compound 28] | 11.7
17 | CC(C)N1CCC(=NNC(=O)c2cccs2)CC1 [Compound 206] | 6.56
18 | Cc1c(C(=O)N(C)C(C)c2ccccn2)oc2c(F)cccc12 (stereo not drawn) [Compound 75] | 13.1
19 | CN1CCN(NC(=O)Nc2ccc(Br)cc2Cl)CC1 [Compound 116] | 13.1
20 | C/C(Cn1cnc([N+](=O)[O-])n1)=N\NC(=O)c1ccccc1 [Compound 236] | 20.8
21 | CN(C)c1ccc(CNc2nc(-c3ccco3)nn2S(C)(=O)=O)cc1 [Compound 33] | 7.36
22 | Cc1ccc(CNc2nc3nc(C)c(Cl)c(C)n3n2)cc1 [Compound 30] | 1.31
23 | Cc1cccc(NC(=O)C2Cc3ccccc3O/C2=N/O)c1 (stereo not drawn) [Compound 114] | 10.4
24 | Cc1c(Cl)cccc1Nc1nc(N)nc(CSC(=S)N2CCOCC2)n1 [Compound 68] | 18.5
25 | Cc1ccc(C)c(N/C(S)=N/NC(=O)c2csc(C)c2C)c1 [Compound 207] | 6.56

Row | SMILES | AC50 [µM]
26 | COc1cccc(OC)c1-c1nn2c(-c3ccco3)nnc2s1 [Compound 57] | 11.7
27 | COc1ccc(NC(=O)c2sc3nc[nH]c(=O)c3c2C)cc1Cl [Compound 103] | 16.5
28 | CCn1c2ccccc2c2cc(NC(=O)COC(=O)Cc3cn4ccsc4n3)ccc21 [Compound 171] | 16.5
29 | Nc1ccccc1C(=O)N/N=C1\CCC\C1=C(\O)C(F)(F)F [Compound 198] | 5.21
30 | C/C(CC(=O)NCc1ccccc1Cl)=N\NC(=O)c1ccccn1 [Compound 213] | 8.26
31 | O=C(Nc1nnc(S(=O)(=O)N2CCCC2)s1)c1ccc(F)cc1 [Compound 106] | 3.69
32 | CCC(=O)Nc1ccc(NC(=O)C23CC4CC(CC(C4)C2)C3)cn1 [Compound 98] | 16.5
33 | C/C(CC(=O)Nc1cc(C)cc(C)c1)=N\NC(=O)c1ccccn1 [Compound 195] | 4.65
34 | Cc1ccc(C)c(-n2nnc(-c3nc(-c4ccc(Cl)cc4)no3)c2N)c1 [Compound 21] | 1.31
35 | Cc1oc(/C=N/NS(=O)(=O)c2ccccc2)cc1Br [Compound 238] | 13.1
36 | COc1ccc(C)cc1-n1nnc(-c2nc(-c3ccccc3Cl)no2)c1N [Compound 16] | 4.65
37 | CCOC(=O)N1CCN(C(=O)CSCc2ccccc2Cl)CC1 [Compound 160] | 16.5
38 | O=C(O)c1ccccc1C(=O)N1N=C(c2ccccc2)CC1c1ccccc1O (stereo not drawn) [Compound 226] | 14.7
39 | O=C(CCc1ccccc1)n1nc(-c2ccco2)nc1SCc1ccccc1 [Compound 53] | 18.5
40 | CCCNC(=O)COCc1cc(-c2ccc(F)cc2)on1 [Compound 170] | 16.5
41 | COc1ccccc1NC(=O)CSc1nnc(-c2ccccn2)o1 [Compound 153] | 14.7
42 | Cc1ccc(-c2cc(C(=O)NCCc3ccccc3)c3c(-c4ccc(C)cc4)[nH]nc3c2)cc1 [Compound 110] | 9.26
43 | O=C(NN=C1CCCC1)c1cccs1 [Compound 186] | 1.65
44 | CC1=NN(C(=O)c2ccoc2C)C(O)(C(F)(F)F)C1 (stereo not drawn) [Compound 217] | 10.4
45 | Nc1c(C(=O)Nc2ccc(Cl)cc2F)sc2nc(-c3cccs3)ccc12 [Compound 87] | 16.5
46 | C/C(=N\NC(=O)c1ccco1)c1ccc(C(=O)O)s1 [Compound 196] | 4.65
47 | COc1ccc(N/C(S)=N/NC(=O)c2cccs2)cc1 [Compound 208] | 7.36

Row | SMILES | AC50 [µM]
48 | C/C(CCc1ccc2c(c1)OCO2)=N\NC(=O)c1ccccc1 [Compound 225] | 13.1
49 | CCS(=O)(=O)n1nc(-c2ccccc2)nc1NCc1ccco1 [Compound 41] | 18.5
50 | Cc1cccc(OCC(=O)Nc2sc3c(c2C#N)CCC3)c1 [Compound 168] | 6.56
51 | Cc1c(-c2nnc(SCC(=O)Nc3ccccc3F)o2)nnn1-c1ccc(F)cc1 [Compound 127] | 2.93
52 | Cc1cccc(-n2nnc(-c3nc(-c4ccccc4)no3)c2N)c1C [Compound 20] | 1.85
53 | CCC(C)NC(=O)CSc1ccc(Cl)cc1 (stereo not drawn) [Compound 162] | 18.5
54 | Cc1ccc(-n2nnc(-c3nc(-c4cccs4)no3)c2N)cc1C [Compound 14] | 1.65
55 | CCOc1ccc(NC(=O)CSc2ccc3ccccc3n2)cc1 [Compound 163] | 18.5
56 | CC(C)(C)c1ccc(-c2nc(NC(=O)CSc3ccc4ccccc4n3)ns2)cc1 [Compound 126] | 2.33
57 | COCCNC(=O)C(c1cccnc1)N(Cc1ccccc1)C(=O)Cn1nnc2ccccc21 (stereo not drawn) [Compound 58] | 13.1
58 | CC1C2CC(C/C2=N\NC(=O)c2cccs2)C1(C)C (stereo not drawn) [Compound 201] | 5.21
59 | Cc1ccccc1Nc1nc(N)nc(CSc2nnc3ccccn23)n1 [Compound 64] | 16.5
60 | Cc1ccc(N/C(S)=N/NC(=O)c2nn(C)c(C)c2Cl)cc1 [Compound 203] | 5.85
61 | COCC(=O)Nc1nnc(C2CCCCC2)s1 [Compound 176] | 16.5
62 | Cc1nnc(SCc2nc(N)nc(Nc3ccccc3)n2)s1 [Compound 60] | 11.7
63 | Cc1ccc(NC(=O)Cc2noc3ccccc23)nc1 [Compound 111] | 16.5
64 | NC(=O)COC(=O)c1ccc2noc(-c3ccccc3)c2c1 [Compound 182] | 6.56
65 | Cc1cc(C)c(C#N)c(SCC(=O)Nc2nonc2N)n1 [Compound 156] | 14.7
66 | c1ccc(CSc2nnc3ccc(-c4cccs4)nn23)nc1 [Compound 44] | 7.36
67 | Cc1ccc(OCCn2cnc3c(N)ncnc32)cc1 [Compound 240] | 16.5
68 | C/C(=N\NC(=O)c1ccncc1)c1ccc(NC(=O)c2ccc(Cl)cc2)cc1 [Compound 185] | 1.47
69 | Cc1ccc(-c2noc(-c3nnn(CC(=O)Nc4cccc(C(F)(F)F)c4)c3N)n2)cc1 [Compound 27] | 0.74

Same assay, conditions: Homo sapiens, Table 12 singletons; read-out: AC50

Row | SMILES | AC50 [µM]
70 | Cc1ccc(/C=N/NC(=O)NC2CCCCC2)o1 [Compound 342] | 18.5
71 | Cc1ccc2[nH]c3c(S)ncnc3c2c1 [Compound 264] | 3.69
72 | C#CN/C(=N\CC=C)SCCc1ccccc1 [Compound 326] | 16.5
73 | COc1ccc(-c2nn3c(-c4ccccc4)nnc3s2)cc1OC [Compound 310] | 14.7
74 | COc1ccc(C2CC(C)(c3ccc(OC)cc3)Nc3ccccc3N2)cc1 (stereo not drawn) [Compound 278] | 7.36
75 | COCCC/N=C(\S)N/N=C/c1ccc(N(C)C)cc1Cl [Compound 270] | 5.85
76 | CCOc1cccc(OCCOc2ccccc2[N+](=O)[O-])c1 [Compound 303] | 14.7
77 | Cc1ccc2nc(C)c(/C=C/C(=O)c3ccco3)cc2c1 [Compound 297] | 14.7
78 | CCNc1ccc(/N=N/c2c(C)n(C)n(-c3ccccc3)c2=O)cc1 [Compound 344] | 16.5
79 | Cc1ccc2oc(=O)c(/C=C(\O)c3cccs3)nc2c1 [Compound 346] | 14.7
80 | COC(=O)C1C(=O)C=C(Nc2ccc(F)cc2F)CC1c1ccccc1 (stereo not drawn) [Compound 340] | 18.5
81 | Cn1c(=O)[nH]c2cc(-c3noc(-c4ccc(F)cc4)n3)ccc21 [Compound 252] | 1.31
82 | CCCCCc1nc2c(=O)n(C)c3ccccc3c2o1 [Compound 324] | 16.5
83 | COc1ccc(C(CC(=O)Nc2ccc(C(C)=O)cc2)N2Cc3ccccc3C2=O)cc1 (stereo not drawn) [Compound 289] | 11.7
84 | O=C(NC1CCCCCC1)C1CCCN(c2ncccn2)C1 (stereo not drawn) [Compound 339] | 18.5
85 | CCOC(=O)c1s/c(=N/C(=O)c2c(F)cccc2F)n(C)c1C [Compound 293] | 13.1
86 | c1csc(-c2nn3c(C4COc5ccccc5O4)nnc3s2)c1 (stereo not drawn) [Compound 314] | 16.5
87 | O=c1c(=Nc2ccccc2O)c(=O)c2ccccc12 [Compound 294] | 13.1
